For 35 molecules, IC50 results are on record in patent US8466155B2, “Pyrimidines” (Boehringer Ingelheim International GmbH, priority 2009, dated 2013).

T1 sequence (Q05397 whole entry): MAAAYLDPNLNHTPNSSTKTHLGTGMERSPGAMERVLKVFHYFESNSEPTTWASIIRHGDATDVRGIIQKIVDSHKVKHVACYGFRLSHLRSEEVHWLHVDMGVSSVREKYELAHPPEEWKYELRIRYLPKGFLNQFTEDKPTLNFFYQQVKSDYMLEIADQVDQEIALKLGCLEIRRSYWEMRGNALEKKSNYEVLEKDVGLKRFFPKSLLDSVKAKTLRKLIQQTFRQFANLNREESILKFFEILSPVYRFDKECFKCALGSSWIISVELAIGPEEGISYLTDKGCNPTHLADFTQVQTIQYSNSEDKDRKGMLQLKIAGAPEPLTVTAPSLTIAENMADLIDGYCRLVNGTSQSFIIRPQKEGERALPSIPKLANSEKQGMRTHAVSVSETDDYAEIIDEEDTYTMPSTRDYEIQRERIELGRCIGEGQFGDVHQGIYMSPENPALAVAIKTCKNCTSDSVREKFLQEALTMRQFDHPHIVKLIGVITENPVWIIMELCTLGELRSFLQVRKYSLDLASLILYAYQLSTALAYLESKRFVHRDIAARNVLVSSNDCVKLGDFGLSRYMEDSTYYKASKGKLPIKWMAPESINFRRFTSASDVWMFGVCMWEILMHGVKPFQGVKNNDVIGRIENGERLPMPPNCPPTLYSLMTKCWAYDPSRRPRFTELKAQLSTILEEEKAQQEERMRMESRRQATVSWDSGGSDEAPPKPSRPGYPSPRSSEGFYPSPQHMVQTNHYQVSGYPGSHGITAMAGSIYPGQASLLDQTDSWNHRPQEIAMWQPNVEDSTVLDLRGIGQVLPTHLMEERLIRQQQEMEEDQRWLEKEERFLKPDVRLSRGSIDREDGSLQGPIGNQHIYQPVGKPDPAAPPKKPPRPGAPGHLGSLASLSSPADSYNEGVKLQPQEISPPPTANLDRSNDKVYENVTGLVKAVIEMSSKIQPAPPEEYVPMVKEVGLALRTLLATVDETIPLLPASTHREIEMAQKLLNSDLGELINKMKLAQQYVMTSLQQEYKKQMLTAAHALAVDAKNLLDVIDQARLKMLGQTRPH

The experiment has as its target T1, PTK2 (Homo sapiens, UniProt Q05397).
T1 construct: purchased Invitrogen PV3832
In words: PTK2 enzyme test, Assay 1 (DELFIA, PT60 antibody). Type of experiment: biochemical. The note with it: 1 h pre-incubation, 1 h kinase reaction, values without *. The method, then:
This test uses active PTK2 enzyme (Invitrogen Code PV3832) and poly-Glu-Tyr (4:1, Sigma P-0275) as the kinase substrate. The kinase activity is detected through the phosphorylation of the substrate in a DELFIA™ assay. The phosphorylated substrate is detected with the europium-labelled phosphotyrosine antibody PT60 (Perkin Elmer, No.: AD00400).
In order to determine concentration-activity curves with PTK2-inhibitors the compounds are serially diluted in 10% DMSO/H20 and 10 μL of each dilution are placed in each well of a 96-well microtitre plate (clear plate with a U-shaped base, Greiner No. 650101) (the inhibitors are tested in duplicates) and mixed with 10 μL/well of PTK2 kinase (0.01 μg/well). PTK2 kinase has been correspondingly diluted beforehand with kinase dilution buffer (20 mM TRIS/HCl pH 7.5, 0.1 mM EDTA, 0.1 mM EGTA, 0.286 mM sodium orthovanadate, 10% glycerol with the addition of freshly prepared BSA (fraction V, 1 mg/mL) and DTT (1 mM)). The test compound and the PTK2 kinase are pre-incubated for 1 h at RT and shaken at 500 revolutions per min. The reaction is started by the addition of 10 μL/well poly (Glu,Tyr) substrate (25 μg/well poly (Glu, Tyr), 0.05 μg/well biotinylated poly (Glu,Tyr) dissolved in 250 mM TRIS/HCl pH 7.5, 9 mM DTT)—the final concentration of DMSO is 2%. Then 20 μL of ATP Mix (30 mM TRIS/HCl pH 7.5, 0.02% Brij, 0.2 mM sodium orthovanadate, 10 mM magnesium acetate, 0.1 mM EGTA, 1× phosphatase inhibitor cocktail 1 (Sigma, No.: P2850), 50 μM ATP (Sigma, No.: A3377; 15 mM stock solution)) are added. After 1 h of kinase reaction (the plates are shaken at 500 rpm), the reaction is stopped by the addition of 12 μL/well 100 mM EDTA, pH 8.0 and shaken for a further 5 min at RT (500 rpm). 55 μL of the reaction mixture are transferred into a streptavidin plate (Strepta Well High Bind (transparent, 96-well) made by Roche, No.: 11989685001) and incubated for 1 h at RT (shaking at 500 rpm). Then the microtitre plate is washed three times with 200 μL/well D-PBS (Invitrogen, No. 14190). 100 μL of a solution containing DELFIA Eu-N1 Anti-Phosphotyrosine PT60 antibody (Perkin Elmer, No.: AD0040, diluted 1:2000 in DELFIA test buffer (Perkin Elmer, No.: 1244-111)) is then added and the mixture is incubated for 1 h at RT (shaking at 500 rpm). Then the plate is washed three times with 200 μL/well DELFIA washing buffer (Perkin Elmer, No.: 1244-114), 200 μL/well strengthening solution (Perkin Elmer, No.: 1244-105) are added and the mixture is incubated for 10 min at RT (shaking at 300 rpm).
The time-delayed europium fluorescence is then measured in a microtitre plate reader (VICTOR^3, Perkin Elmer). […] Wells that contain test buffer instead of enzyme are used as a control of the background kinase activity.
The IC50 values are determined from analyses of the concentration activity by iterative calculation with the aid of a sigmoid curve analysis algorithm (FIFTY, based on GraphPAD Prism Version 3.03) with a variable Hill coefficient.
`COc1cc(C(=O)N[C@H]2CCN(C)C[C@@H]2OC)c(F)cc1Nc1ncc(C(F)(F)F)c(O[C@@H]2Cc3ccccc3[C@H]2N(C)S(C)(=O)=O)n1` [Example 31, 2-fluoro-4-{4-[(1R,2R)-1-(methanesulphonyl-methyl-amino)-indan-2-yloxy]-5-trifluoromethyl-pyrimidin-2-ylamino}-5-methoxy-N-((3S,4S)-3-methoxy-1-methyl-piperidin-4-yl)-benzamide] yielded an IC50 of 3 nM.
The result for `COc1cc(C(=O)NCC(C)(C)C)ccc1Nc1ncc(C(F)(F)F)c(O[C@@H]2Cc3ccccc3[C@H]2N(C)S(C)(=O)=O)n1` [Example 15] reads 11 nM; that for `CNC(=O)c1ccc(Nc2ncc(C(F)(F)F)c(O[C@@H]3Cc4ccccc4[C@H]3N(C)S(C)(=O)=O)n2)c(OC)c1` [Example 17], 13 nM.
`COc1cc(C(=O)NN2CCN(C)CC2)ccc1Nc1ncc(C(F)(F)F)c(O[C@@H]2CCC[C@H]2N(C)S(C)(=O)=O)n1` [Example 89] came in with an IC50 of 0.33 nM.
The same measure for `CONC(=O)c1cc(OC)c(Nc2ncc(C(F)(F)F)c(O[C@@H]3Cc4ccccc4[C@H]3N(C)S(C)(=O)=O)n2)cc1F` [Example 1]: 6 nM; for `COc1cc(C(=O)NC2CCN(C)CC2)ccc1Nc1ncc(C(F)(F)F)c(O[C@H]2Cc3ccccc3[C@H]2N(C)S(C)(=O)=O)n1` [Example 70]: 238 nM; for `CCS(=O)(=O)N[C@@H]1CCC[C@H]1Oc1nc(Nc2cc(F)c(C(=O)NC3CCN(C)CC3)cc2OC)ncc1C(F)(F)F` [Example 44]: 6 nM.
The result for `COc1cc(C(=O)NC2CCN(C)CC2)c(Cl)cc1Nc1ncc(Cl)c(O[C@@H]2Cc3ccccc3[C@H]2N(C)S(C)(=O)=O)n1` [Example 62] reads 3 nM.
In the case of `COc1cc(C(=O)NC2CCN(C)CC2)c(F)cc1Nc1ncc(Cl)c(O[C@@H]2CCC[C@H]2N(C)S(C)(=O)=O)n1` [Example 85, 4-{5-chloro-4-[(1R,2R)-2-(methanesulphonyl-methyl-amino)-cyclopentyloxy]-pyrimidin-2-ylamino}-2-fluoro-5-methoxy-N-(1-methyl-piperidin-4-yl)-benzamide], inhibition was half-maximal at 0.37 nM (IC50).
The same measure for `COc1ccc(C(=O)NCCCN(C)C)cc1Nc1ncc(C(F)(F)F)c(O[C@@H]2Cc3ccccc3[C@H]2N(C)S(C)(=O)=O)n1` [Example 82]: 0.38 nM; for `COc1cc(C(=O)NCCN2CCN(C)CC2)c(F)cc1Nc1ncc(Cl)c(O[C@@H]2Cc3ccccc3[C@H]2N(C)S(C)(=O)=O)n1` [Example 57]: 2 nM; for `COc1cc(C(=O)NC2CCN(C)CC2)c(F)cc1Nc1ncc(C(F)(F)F)c(O[C@@H]2CCC[C@H]2N(C)S(C)(=O)=O)n1` [Example 103, 2-fluoro-4-{4-[(1R,2R)-2-(methanesulphonyl-methyl-amino)-cyclopentyloxy]-5-trifluoromethyl-pyrimidin-2-ylamino}-5-methoxy-N-(1-methyl-piperidin-4-yl)-benzamide]: 0.28 nM.
The same measure for `COc1cc(C(=O)NCCCN(C)C)ccc1Nc1ncc(C(F)(F)F)c(O[C@@H]2Cc3ccccc3[C@H]2N(C)S(C)(=O)=O)n1` [Example 20]: 3 nM; for `COc1cc(C(=O)NCCN(C)C)c(F)cc1Nc1ncc(C(F)(F)F)c(O[C@@H]2CCCC[C@H]2N(C)S(C)(=O)=O)n1` [Example 110]: 0.35 nM; for `COc1cc(C(=O)N[C@H]2CC[C@H](O)CC2)c(F)cc1Nc1ncc(C(F)(F)F)c(O[C@@H]2Cc3ccccc3[C@H]2N(C)S(C)(=O)=O)n1` [Example 10]: 7 nM.
The result for `COc1cc(NC(=O)C2CCCN(C)C2)ccc1Nc1ncc(C(F)(F)F)c(O[C@@H]2Cc3ccccc3[C@H]2N(C)S(C)(=O)=O)n1` (some centres unmarked) [Example 92] reads 3 nM; that for `COc1cc(C(=O)NC2CCN(C)CC2)ccc1Nc1ncc(C(F)(F)F)c(O[C@H]2Cc3ccccc3[C@@H]2N(C)S(C)(=O)=O)n1` [Example 32], 400 nM; that for `COc1cc(C(=O)NCCN(C)C)c(Cl)cc1Nc1ncc(Cl)c(O[C@@H]2Cc3ccccc3[C@H]2N(C)S(C)(=O)=O)n1` [Example 40], 3 nM.
Turning to `COc1cc(C(=O)NC2CCN(C)CC2)c(Cl)cc1Nc1ncc(C(F)(F)F)c(O[C@@H]2CCCC[C@H]2NS(C)(=O)=O)n1` [Example 93], the IC50 turned out to be 0.42 nM.
The result for `COc1cc(C(=O)N(C)C)c(Cl)cc1Nc1ncc(Cl)c(O[C@@H]2Cc3ccccc3[C@H]2N(C)S(C)(=O)=O)n1` [Example 37] reads 28 nM.
The result for `COc1cc(C(=O)NC[C@H](O)CO)c(F)cc1Nc1ncc(C(F)(F)F)c(O[C@@H]2Cc3ccccc3[C@H]2N(C)S(C)(=O)=O)n1` [Example 65] reads 10 nM.
Take `COc1cc(C(=O)NC[C@@H](O)CO)c(F)cc1Nc1ncc(C(F)(F)F)c(O[C@@H]2Cc3ccccc3[C@H]2N(C)S(C)(=O)=O)n1` [Example 64]: half-maximal inhibition (IC50) was put at 6 nM. This IC50 lies about 1.7-fold lower than the previous one.
With `COc1cc(C(=O)NC[C@@H](O)CO)ccc1Nc1ncc(C(F)(F)F)c(O[C@@H]2Cc3ccccc3[C@H]2N(C)S(C)(=O)=O)n1` [Example 50], the IC50 stood at 4 nM.
`COc1cc(C(=O)NCCN(C)C)c(F)cc1Nc1ncc(C(F)(F)F)c(O[C@@H]2Cc3ccccc3[C@H]2NS(C)(=O)=O)n1` [Example 96] showed an IC50 of 0.54 nM.
The same measure for `COc1cc(C(=O)NC2CCN(C)CC2)c(F)cc1Nc1ncc(C(F)(F)F)c(O[C@@H]2CCC[C@H]2NS(=O)(=O)C2CC2)n1` [Example 46]: 34 nM.
The molecule `COc1cc(C(=O)NCC(C)(C)C)c(Cl)cc1Nc1ncc(Cl)c(O[C@@H]2Cc3ccccc3[C@H]2N(C)S(C)(=O)=O)n1` [Example 39] displayed a half-maximal inhibitory concentration (IC50) of 6 nM.
For `COc1cc(C(=O)NC2CCN(C)CC2)c(F)cc1Nc1ncc(C(F)(F)F)c(O[C@@H]2Cc3ccccc3[C@H]2NS(C)(=O)=O)n1` [Example 24, 2-fluoro-4-[4-((1R,2R)-1-methanesulphonylamino-indan-2-yloxy)-5-trifluoromethyl-pyrimidin-2-ylamino]-5-methoxy-N-(1-methyl-piperidin-4-yl)-benzamide], it took 1 nM to reach half-maximal inhibition (IC50).
The result for `COc1cc(C(=O)NC[C@H](O)CO)c(F)cc1Nc1ncc(Cl)c(O[C@@H]2Cc3ccccc3[C@H]2N(C)S(C)(=O)=O)n1` [Example 56] reads 9 nM; that for `Cc1nc2ccc(Nc3ncc(C(F)(F)F)c(O[C@@H]4CCC[C@H]4NS(C)(=O)=O)n3)cc2o1` [Example 83], 1 nM.
The result for `COc1cc(C(=O)NN2CCN(C)CC2)ccc1Nc1ncc(C(F)(F)F)c(O[C@@H]2CCC[C@H]2NS(C)(=O)=O)n1` [Example 73] reads 2 nM; that for `COc1cc(C(=O)NCCn2ccnc2C)c(F)cc1Nc1ncc(C(F)(F)F)c(O[C@@H]2Cc3ccccc3[C@H]2N(C)S(C)(=O)=O)n1` [Example 4], 5 nM; that for `COc1cc(C(=O)NCCn2ccnc2C)c(Cl)cc1Nc1ncc(Cl)c(O[C@@H]2Cc3ccccc3[C@H]2N(C)S(C)(=O)=O)n1` [Example 35], 2 nM.
The same measure for `COc1cc(C(=O)NC2CCN(C)CC2)ccc1Nc1ncc(C(F)(F)F)c(O[C@@H]2Cc3ccccc3[C@H]2N(C)S(C)(=O)=O)n1` [Example 27, 4-{4-[(1R,2R)-1-(methanesulphonyl-methyl-amino)-indan-2-yloxy]-5-trifluoromethyl-pyrimidin-2-ylamino}-3-methoxy-N-(1-methyl-piperidin-4-yl)-benzamide]: 1 nM.
In the case of `COc1cc(C(=O)NCCn2ccnc2C)c(F)cc1Nc1ncc(Cl)c(O[C@@H]2Cc3ccccc3[C@H]2N(C)S(C)(=O)=O)n1` [Example 52], the IC50 was determined as 6 nM.
The result for `COc1cc(C(=O)NCCn2ccnc2C)ccc1Nc1ncc(C(F)(F)F)c(O[C@@H]2Cc3ccccc3[C@H]2N(C)S(C)(=O)=O)n1` [Example 13] reads 4 nM.
